# pIC50: −log10 of the molar value.
# Target: T1, human TRPM8 (Homo sapiens, UniProt Q7Z2W7)
# T1 construct: expressed in transfected cells; host or cells: Chinese hamster ovary (CHO) cells, T-REx tetracycline-inducible expression system (Invitrogen), co-transfected with pcDNA3.1 jellyfish aequorin
# Experiment: Luminescence readout assay for measuring intracellular calcium (aequorin), hTRPM8 antagonism
# Type: cell-based
# Conditions: CHO cell line expressing human TRPM8 and aequorin; activation by icilin, L-menthol or cold buffer (table does not say which)
# Method: Luminescence Readout Assay for Measuring Intracellular Calcium.
# A stable Chinese hamster ovary cell line expressing human TRPM8 was generated using tetracycline inducible T-REx™ expression system from Invitrogen, Inc. (Carlsbad, Calif.). […] Twenty four hours before the assay, cells were seeded in 96-well plates and TRPM8 expression was induced with 0.5 μg/mL tetracycline. […] Potential antagonists were added 2.5 min prior to the addition of agonist, […], 100 µM L-menthol, or 1 min prior to the addition of cold buffer (<10° C.). The luminescence was measured by a CCD camera based FLASH-luminometer built by Amgen, Inc. A cooling device attached to FLASH luminometer was used for cold activation.
# T1 sequence (Q7Z2W7 whole entry): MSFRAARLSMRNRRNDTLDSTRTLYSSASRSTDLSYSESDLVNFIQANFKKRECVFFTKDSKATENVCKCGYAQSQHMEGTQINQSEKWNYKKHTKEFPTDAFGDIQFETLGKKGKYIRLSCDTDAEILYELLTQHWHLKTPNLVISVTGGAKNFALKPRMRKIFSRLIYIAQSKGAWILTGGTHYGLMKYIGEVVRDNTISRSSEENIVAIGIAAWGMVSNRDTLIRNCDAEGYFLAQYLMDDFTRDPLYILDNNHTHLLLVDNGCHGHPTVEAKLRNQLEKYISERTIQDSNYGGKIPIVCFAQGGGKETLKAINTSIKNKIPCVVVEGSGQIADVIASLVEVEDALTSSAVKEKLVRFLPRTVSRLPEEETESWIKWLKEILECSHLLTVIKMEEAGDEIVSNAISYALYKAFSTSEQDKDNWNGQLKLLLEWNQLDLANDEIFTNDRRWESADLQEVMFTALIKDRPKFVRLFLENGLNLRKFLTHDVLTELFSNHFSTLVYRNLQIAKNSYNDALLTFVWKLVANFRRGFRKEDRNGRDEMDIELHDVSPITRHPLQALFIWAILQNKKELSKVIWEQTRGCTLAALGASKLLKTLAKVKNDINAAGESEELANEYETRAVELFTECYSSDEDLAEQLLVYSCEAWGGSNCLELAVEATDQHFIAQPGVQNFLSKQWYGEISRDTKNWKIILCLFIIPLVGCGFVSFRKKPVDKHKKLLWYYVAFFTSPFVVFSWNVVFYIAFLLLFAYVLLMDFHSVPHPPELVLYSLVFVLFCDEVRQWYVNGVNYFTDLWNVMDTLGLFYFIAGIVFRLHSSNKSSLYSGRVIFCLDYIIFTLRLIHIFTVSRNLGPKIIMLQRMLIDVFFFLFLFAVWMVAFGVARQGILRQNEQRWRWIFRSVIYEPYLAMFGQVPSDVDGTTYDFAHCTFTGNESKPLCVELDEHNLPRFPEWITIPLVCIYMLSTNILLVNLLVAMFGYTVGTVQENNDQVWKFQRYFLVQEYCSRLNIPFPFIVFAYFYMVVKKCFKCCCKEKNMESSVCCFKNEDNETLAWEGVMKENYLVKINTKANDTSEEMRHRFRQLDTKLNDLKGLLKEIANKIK
row,Structure (SMILES),pIC50
1,Cc1ccc(C)c(NC(=O)N[C@@H](c2ccc(C(F)(F)F)cc2)c2ncccc2C(F)(F)F)c1 [Example 108],6.08
2,"O=C(Nc1cccnc1)N[C@@H](c1cccc(F)c1)c1ncccc1C(F)(F)F [Example 8, (S)-1-((3-fluorophenyl)-(3-(trifluoro-methyl)-pyridin-2-yl)-methyl)-3-(pyridin-3-yl)-urea]",6.23
3,"O=C(Nc1cccnc1)NC(c1cc(F)cc(Cl)c1)c1ncccc1C(F)(F)F (stereo not shown) [Example 23, 1-((3-chloro-5-fluoro-phenyl)(3-(trifluoro-methyl)-pyridin-2-yl)-methyl)-3-(pyridin-3-yl)-urea (2,2,2-trifluoro-acetate)]",6.59
4,"O=C(Nc1cccnc1)N[C@@H](c1ccc(Cl)cc1)c1ncccc1C(F)(F)F [Example 26, (S)-1-((4-chlorophenyl)-(3-(trifluoro-methyl)-pyridin-2-yl)-methyl)-3-(pyridin-3-yl)-urea]",6.61
5,"O=C(Nc1cccnc1)N[C@@H](c1ccc(C(F)(F)F)cc1)c1cnccc1C(F)(F)F [Example 119, (S)-1-(pyridin-3-yl)-3-((4-(trifluoro-methyl)-phenyl)(4-(trifluoro-methyl)-pyridin-3-yl)-methyl)urea bis(2,2,2-trifluoro-acetate)]",6.43
6,"O=C(NC(=O)c1ccccc1)N[C@@H](c1ccc(C(F)(F)F)cc1)c1ncccc1C(F)(F)F [Example 67, (S)-N-((4-(trifluoro-methyl)-phenyl)(3-(trifluoro-methyl)-pyridin-2-yl)-methylcarbamoyl) benzamide (2,2,2-trifluoro-acetate)]",6.45
7,"COc1ncc(NC(=O)N[C@@H](c2ccc(C(F)(F)F)cc2)c2ncccc2F)cn1 [Example 160, (S)-1-((3-fluoropyridin-2-yl)(4-(trifluoro-methyl)-phenyl)-methyl)-3-(2-methoxy-pyrimidin-5-yl)urea]",5.78
8,"CC#Cc1cccnc1[C@@H](NC(=O)NC(C)(C)C)c1ccc(C(F)(F)F)cc1 [Example 42, (S)-1-(tert-butyl)-3-((3-(prop-1-yn-1-yl)pyridin-2-yl)(4-(trifluoro-methyl)-phenyl)-methyl)urea]",6.97
9,CCOC(=O)NC(=O)N[C@@H](c1ccc(C(F)(F)F)cc1)c1ncccc1C(F)(F)F [Example 81],6.30
10,"O=C(Nc1cccc2ncccc12)N[C@@H](c1ccc(C(F)(F)F)cc1)c1ncccc1C(F)(F)F [Example 179, (S)-1-(Quinolin-5-yl)-3-((4-(trifluoromethyl)phenyl)(3-(trifluoromethyl)pyridin-2-yl)methyl)urea]",7.11
11,CC(C)(C)Cc1cccnc1[C@@H](NC(=O)Nc1cccnc1)c1ccc(C(F)(F)F)cc1 [Example 62],5.71
12,"O=C(Nc1cccnc1)N[C@@H](c1cccc(Cl)c1)c1ncccc1C(F)(F)F [Example 3, (S)-1-((3-chlorophenyl)-(3-(trifluoro-methyl)-pyridin-2-yl)-methyl)-3-(pyridin-3-yl)-urea]",6.76
13,"C=CCc1cccnc1[C@@H](NC(=O)N[C@@H](C)C(F)(F)F)c1ccc(C(F)(F)F)cc1 [Example 158, 1-((S)-(3-allylpyridin-2-yl)(4-(trifluoro-methyl)-phenyl)-methyl)-3-((S)-1,1,1-trifluoro-propan-2-yl)-urea]",7.55
14,"COc1ccc([C@H](NC(=O)Nc2cccnc2)c2ncccc2C(F)(F)F)cc1F [Example 5, (S)-1-((3-fluoro-4-methoxy-phenyl)(3-(trifluoro-methyl)-pyridin-2-yl)-methyl)-3-(pyridin-3-yl)-urea]",6.84
15,"CC(C)(C)NC(=O)N[C@@H](c1ccc(C(F)(F)F)cc1)c1ncccc1Br [Example 41, (S)-1-((3-bromopyridin-2-yl)(4-(trifluoro-methyl)-phenyl)-methyl)-3-(tert-butyl)-urea]",6.91
16,"O=C(NCc1ccc(Cl)c(Cl)c1)N[C@@H](c1ccc(C(F)(F)F)cc1)c1ncccc1C(F)(F)F [Example 184, (S)-1-(3,4-dichlorobenzyl)-3-((4-(trifluoro-methyl)phenyl) (3-(trifluoro-methyl)pyridin-2-yl)methyl)urea (2,2,2-trifluoro-acetate)]",6.23

# Source: US8778941B2, “TRPM8 antagonists and their use in treatments” (AMGEN Inc., priority 2011, dated 2014)
